# Read-outs that look alike come from different tables or passages of the source.
# Tests used:
# [1] = Working memory (MWM) in ischemic rats; format: in vivo, rat; conditions: 0.5 mg/kg po chronic, vs DDW
# Experimental: This was done by a bilateral carotid artery occlusion in Sprague Dawley rats: […] Ischemia was induced in 21 rats whereas the other 21 rats served as sham controls. Under pentobarbital anasthesia (30 mg/kg, ip), sodium nitropruside 4.8 mg/kg/hr) was infused through a cannula implanted in the tail vein, for a period of 25 min. […] Immediately afterwards 1.8 mEq sodium bicarbonate solution was administerd ip in order to minimize systemic acidosis. The sham operated rats were anesthetized as the ischemic rats and were infused with saline. Their carotid arteries were exposed but were not subject to carotid clamping. […] Animals were allowed to recover for 3 weeks prior to behavioral testing. […] The evaluation of the animals was done using the working-memory matching-to-sample paradigm in the MWM. […] REL and RPL reflect the relative saving in performance from trial no 1 to trial no 2. REL and RPL were analyzed by a 3-way ANOVA (2×2×3), with one repeated variable (weeks) and two non-repeated variables (Operation-ischemia/sham-operated and Treatment-AF150(S)/DDW).
# [2] = test system: rat pheochromocytoma cells transfected with M1 mAChR; test: Neurite outgrowth in rat pheochromocytoma cells transfected with M1 mAChR; format: cell-based; conditions: 24 hrs, without neurotrophins
# Experimental: For determination of neurite outgrowth, cells plated in six-well plates were used 3-5 days after plating. Growth factors were added 1 day after plating and muscarinic agonists were added for the last 24 hrs.
# Cells were observed under an inverted microscope. The percent of cells with neurite longer than cell diameter were scored in three random fields of several hundred cells from each well. Results were expressed as a percent of cells with neurites. Treatments were performed in triplicate cells. Both NGF (50 ng/ml) and EGF (100 ng/ml) were added 1 day after plating. Muscarinic agonists were added 24 hours before scoring.
# tau [3] = test: tau-1 immunoreactivity in primary cell cultures (western blot); format: cell-based, rat; conditions: cortical and hippocampal cultures, 1-100 μM
# Experimental: Primary cell cultures were grown as described in EXAMPLE 38. Cell supernatants were removed and the cells were washed once in medium prior to the addition of cold phosphate buffre saline ph=7.4 (PBS) solution containing 0.2 mM EDTA. Cells were scraped using a rubber policeman, transferred to Eppendorf tubes, and centrifuged at 4° C. Cell pellets were resuspended in lysis buffer (EDTA 5 mM, Tris 50 mM, Triton 1%, NaCl 150 mM) containing protease inhibitors (5 units/ml apronitin, […] and 0.1 mM PMSF, Sigma) and subjected to centrifugation at 4° C. Supernatants were transferred into Eppendorf tubes and kept at −20° C. till analyzed. The extent of tau-1 immunoreactivity (an antibody that recognizes a non-phosphorylated tau at Ser^199) was determined by western blots.
# [4] = Social memory (olfactory recognition) in naive rats; format: in vivo, rat; conditions: 0.5, 1 and 5 mg/kg p.o., vs placebo, dose-dependent
# Experimental: Animals were kept at 21° C.±1, with an inverse light-dark cycle (light on from 2:00 P.M. to 2:00 A.M.). The sessions were conducted 7 hr into the dark part of the light/dark cycle, under red illumination. […] The time spent by the adult rat in investigating the juvenile rat was recorded. […] Thus under the influence of a purported memory enhancing drug, the time spent in investigating the same juvenile is expected to be reduced. […] Any reduction in social exploration of this different juvenile is thus considered as reflecting a nonspecific effect of the drug (i.e., not memory related). On no occasion was a subject tested twice with the same juvenile stimulus animal, nor was a juvenile used more than once in a 48-hr period. […] Time spent in social investigation of stimulus juvenile rat was measured (in sec) and then expressed for each animal as the ratio of the second exposure to the first exposure (Ratio of Investigation Duration (RID)). […] Analysis for repeated measurement was made by a 3-way ANOVA and post hoc comparisons were made by simple main effects contrasts analysis.
# [5] = Pharmacokinetic study in dogs; format: in vivo, Beagle dog; conditions: for bioavailability: Beagle, dog, plasma, po, read-out: Bioavailability (% F)
# From the text: The results of the PK profile of AF292 in rats and Beagle dogs (overnight fasting; drug administered in water solution; gavage) are listed in Table 1.
# tau [6] = test: Tau phosphorylation, AT8 immunoblot; format: cell-based; conditions: 100 μM; to the control level
# From the text: Following the experimental design of Sadot et al., J.Neurochem. […] By linking an M1 agonist to an antioxidant moiety tau phophorylation may be decreased, providing a new therapeutic strategy in a variety of CNS disease states due to combined damage due to oxidative stress and tau hyperphosphorylation.
# human M1 receptor = target: T1, human M1 receptor (Homo sapiens, UniProt P11229); test: Arachidonic acid (AA) release, human M1; format: cell-based
# T1 construct: expressed in transfected cells
# T1 sequence (P11229 1-460): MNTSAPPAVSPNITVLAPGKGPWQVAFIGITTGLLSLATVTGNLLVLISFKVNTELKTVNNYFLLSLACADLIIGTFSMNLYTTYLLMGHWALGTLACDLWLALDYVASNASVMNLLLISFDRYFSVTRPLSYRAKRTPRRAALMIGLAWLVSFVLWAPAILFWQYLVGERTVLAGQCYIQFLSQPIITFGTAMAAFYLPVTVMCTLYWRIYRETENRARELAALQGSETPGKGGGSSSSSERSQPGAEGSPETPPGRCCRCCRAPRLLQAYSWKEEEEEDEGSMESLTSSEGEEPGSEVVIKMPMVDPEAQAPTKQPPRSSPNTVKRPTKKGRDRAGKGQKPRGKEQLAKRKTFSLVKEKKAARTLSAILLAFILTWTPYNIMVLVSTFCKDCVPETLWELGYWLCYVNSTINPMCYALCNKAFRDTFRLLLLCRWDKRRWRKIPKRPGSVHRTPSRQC
# [7] = CNS safety, general observation and Irwin test in rats; format: in vivo, rat
# Experimental: AF292 was evaluated in rodents for possible effects on general behavior and other […] related pharmacological effects.
# [8] = Morris water maze in aged rats; format: in vivo, rat; conditions: for reversal learning: AF267B 1 mg/kg, AF292 1 and 0.5 mg/kg po
# From the text: Old (22-24 months old) and young (three months old) Sprague-Dawley rats had been tested in the MWM.
# Aβ = test: CSF and cortical Aβ in nbm-lesioned (hypocholinergic) rabbits; format: in vivo, rabbit; conditions: vs lesioned saline controls
# From the text: Twenty-eight female New Zealand White rabbits, about 2.5 kg each (young adults) were used. Twenty-one received lesions of the cholinergic nucleus basalis magnocellularis (nbm). The lesion was accomplished with unilateral i.c.v. injections of an immunotoxin consisting of the ribosomal toxin saporin conjugated to the monoclonal antibody MB20.4, which is directed against the low-affinity neurotophin receptor, p75. The ME20.4 antibody is made against monkey p 75 and also recognizes rabbit p75. The dose of immunotoxin was 32.4 μg in 12 μl; this was delivered to the right lateral ventricle 2 mm lateral to the bregma. Seven animals received i.c.v. injections of sterile normal saline (sham lesion). Animals which received the immunotoxin were divided into 3 groups of 7. […] Another group received physostigmine hemisalicylate in normal saline by s.c. osmotic pump at a daily dose of 3 mg/kg. The third group received twice-daily sterile saline s.c. injections. The animals which received a sham lesion were implanted with s.c. osmotic pumps filled with sterile normal saline. Animals were euthanized 4 weeks after surgery. […] Cerebrospinal fluid was taken from the cisterna magna of all animals at the time of sacrifice; the brain was removed and sliced coronally into 0.5 cm slices. […]
# [9] = test system: Human α-glycoprotein (AGP); test: Protein binding, human α-glycoprotein; format: in vitro ADME; conditions: 10 μM
# Experimental: Protein binding studies were carried out in human plasma, α1-glycoprotein, human serum […] (HSA), and Dulbecco's Phosphate Buffered Saline (PBS). AF292 was added to a final concentration of 10 μM. […] (μM) and in human α-glycoprotein (AGP), (see Table 1).
smiles,measurement,setting,value
"CC1=NCC2(CCN(C)CC2)S1 [AF150(S), 2,8-Dimethyl-1-thia-3,8-diaza-spiro[4.5]dec-2-ene]",working memory performance (REL and RPL),[1],significantly improved working memory performance
same,Maximal neurite outgrowth response (percent of cells with neurites),[2],30%
same,tau-1 immunoreactivity (non-phosphorylated tau),tau [3],effective in elevating tau immunoreactivity
same,investigation time of the same juvenile (RID),[4],decreased the investigation time
"CC[C@@H]1SC2(CCN(C)CC2)NC1=O [AF267B, (S)-2-ethyl-8-methyl-1-thia-4,8-diaza-spiro[4.5]decan-3-one]",bioavailability,"[5]; Dogs., 1 mg/kg, p.o.",53%
same,Tmax,"[5]; Dogs., 1 mg/kg, p.o.",34.8 to 45 min
same,phosphorylated tau (AT8),tau [6],induce dephosphorylation of tau proteins
same,Maximal neurite outgrowth response (percent of cells with neurites),[2],60%
same,AA release vs. CCh (as 100%),human M1 receptor,100%
same,tau-1 immunoreactivity (non-phosphorylated tau),tau [3],effective in elevating tau immunoreactivity
same,"IRWIN TEST, duration of signs","[7]; rat, 100 mg/kg, p.o.",duration 3-6 hrs.).
same,"IRWIN TEST, onset of signs","[7]; rat, 100 mg/kg, p.o.",reduced startle response (onset: 0.5 hr;
same,"IRWIN TEST, signs (carriage, apathy, corneal reflex, diarrhea, grooming, urination, salivation, lacrimation, locomotor activity, respiration, startle)","[7]; rat, 100 mg/kg, p.o.","100 mg/kg: abnormalities of carriage,"
same,IRWIN TEST,"[7]; rat, 1 & 10 mg/kg, p.o.",1 & 10 no effect on gross behavior
same,"General Observation: Chromodacryorrhea, dose","[7]; rat, p.o.","Chromodacryorrhea: 100 mg/kg, p.o."
same,"General Observation: Convulsion, dose","[7]; rat, p.o.","Convulsion: 50 mg/kg, p.o."
same,"General Observation: Gnawing, dose","[7]; rat, p.o.","Gnawing; 50 mg/kg, p.o."
same,"General Observation: Hypothermia, dose","[7]; rat, p.o.","Hypothermia: 50 mg/kg, p.o."
same,"General Observation: Lacrimation, dose","[7]; rat, p.o.","Lacrimation: 50 mg/kg, p.o."
same,"General Observation: Mydriasis, dose","[7]; rat, p.o.","Mydriasis: 25 mg/kg, p.o."
same,"General Observation: Salivation, dose","[7]; rat, p.o.","Salivation: 40 mg/kg, p.o."
same,"General Observation: Sedation, dose","[7]; rat, p.o.","Sedation: 100 mg/kg, p.o."
same,dose at which effects begin (salivation and lacrimation),"[7]; rats, po, first hour",about 40 mg/kg
same,swimming ability,[8],no significant effect on the swimming ability
same,learning,[8]; 1 mg/kg,tendency for improvement
same,reversal learning,[8],improved significantly the reversal learning
same,investigation time of the same juvenile (RID),[4],decreased the investigation time
same,CSF sAPPα bands,Aβ,no significant difference
same,CSF Aβ (4 kDa band),Aβ; p=0.05,noticeable decrease
"CC[C@@H]1SC2(CCNCC2)NC1=O [AF292, (S)-2-Ethyl-1-thia-4,8-diaza-spiro[4.5]decan-3-one]",bioavailability,"[5]; Dogs, 5 mg/kg. p.o.",70%
same,phosphorylated tau (AT8),tau [6],induce dephosphorylation of tau proteins
same,AA release vs. CCh (as 100%),human M1 receptor,> 88%
same,physical or behavioral signs,"[7]; rats, 1, 10, 30, 60, or 100 mg/kg orally",No significant physical or behavioral signs
same,reversal learning,[8],did not reach significance
same,"probe trial, spatial bias",[8]; both doses (1 and 0.5 mg/kg po),tendency for partial spatial bias
same,Protein Binding,[9],Human α-glycoprotein (AGP) = 0%
